Converted amounts (≈) assume the structure as drawn.
Legend:
[1] = Dynamic vapor sorption (moisture uptake); type: physicochemical; details: 25° C.
Method: Dynamic Vapor Sorption (DVS) was carried out using a TA Instruments Q5000 Dynamic Vapor Sorption analyzer. The instrument was calibrated with standard weights and a sodium bromide standard for humidity. Approximately 10-25 mg of sample was loaded into a metal-coated quartz pan for analysis. […] The movement from one step to the next occurred either after satisfying the equilibrium criterion of 0.01% weight change or, if the equilibrium criterion was not met, after one hour. The percent weight change values were calculated using Microsoft Excel®.

[2] = Pharmacokinetics / absolute bioavailability in male Sprague Dawley rats; type: in vivo; details: for AUC(0-inf): rat; for AUC(0-inf) / AUCinf: plasma
Method: Twenty-one (21) male Sprague Dawley rats (purchased from Shanghai Laboratory Animal Center Co., Ltd., Shanghai, China) were randomized into 7 groups (3 animals per group). The animals fasted overnight, the forms of Compound 1 shown in Table 7 were administered by oral gavage, and the animals were fed 4 hours post-dose.
Blood was serially collected from each animal at 0 (pre-dose), 0.083, 0.25, 0.5, 1, 2, 4, 8, and 24 h post-dose. For each collection, the animal was restrained manually, and approximately 150 μL of blood sample was collected via the tail vein into K2EDTA tubes. Plasma samples were stored at approximately −70° C. until analysis.
To enable the calculation of absolute bioavailability, Compound 1 was formulated as a solution in 10% N-methyl-2-pyrrolidone, 10% Solutol HS 15, and 80% saline and administered at 1 mg/kg as intravenous (IV) bolus dose to a separate group of male Sprague Dawley rats, and blood samples were collected at similar timepoints to those shown above. Further, plasma samples were obtained from the collected samples and stored at approximately −70° C. until analysis.
The concentration of Compound 1 in the plasma samples was determined by LC-MS/MS analysis.
A 20 μL aliquot of each plasma sample was mixed with 200 μL of acetonitrile containing glipizide as an internal standard (40 ng/mL). The resulting mixture was vortexed at 1500 rpm for 2 min and centrifuged at 5800 rpm for 10 min. A 1 μL sample from the supernatant was injected into LC-MS/MS.
LC-MS/MS analysis was conducted on a UPLC/MS-MS (API 6500+) system under the conditions outlined in Table 8
The absolute bioavailability of each form of Compound 1 was determined by dividing the AUCinf of the form in question by the AUCinf obtained historical data by IV administration of Compound 1.

[3] = pH solubility in buffers; type: physicochemical; details: for pH (24 h): pH of solution at 24 h; for solubility / solubility at 2 h: 37 °C
Method: (§1) Solubility samples were prepared by weighing about 10 mg of each salt and adding 1 mL of media and vortexed briefly to obtain suspensions. […] For such instances, the solubility is calculated as greater than (>).
(§2) The sample vials were capped and wrapped in aluminum foil, and placed on a shaker at 37° C. The shaker was set at about 100 rpm and vials were removed at specified time points. The vials were observed, and the supernatants were transferred to Eppendorf tubes and centrifuged at 3K for 10 minutes. The clear supernatants were transferred to HPLC vials. The samples were diluted prior to HPLC analysis using the dilution media by 2× or used without dilution. pH was measured of the 24 hour timepoint after centrifugation using a micro pH probe.
(§3) • pH 2 buffer USP: Mixed 50 mL of 0.2M potassium chloride and 13 mL 0.2M HCl, diluted to 200 mL with water. • pH 4.5 buffer USP: 5.44 g of potassium dihydrogen phosphate was diluted to 1000 mL with water. • pH 6.8 buffer USP: Mixed 50 mL of 0.2M potassium phosphate and 22.4 mL 0.2M sodium hydroxide. Diluted with water to 200 mL. • SGF: 2.0109 g of NaCl was dissolved in water, added 7 mL of conc. HCl and diluted to 1 L. • FeSSIF: 4.0321 g of NaOH and 11.8726 g of NaCl were dissolved in water, added 8.65 mL of glacial acetic acid, adjusted the pH to 5.0 and diluted to 1 L. • FaSSIF: 0.4247 g of NaOH, 3.9548 g of sodium phosphate monobasic monohydrate and 6.1900 g of NaCl were dissolved in water, adjusted the pH to 6.5 and diluted to 1 L.
(§4) At each time point, the solution was analyzed by HPLC and residue was vacuum dried and analyzed by XRPD. The pH of the solution was measured at 24 hours.

[4] = Kinetic solubility in biorelevant media; type: physicochemical
Method: as §1, §2
as §3, with “adjusted the pH to 5.0 and diluted to 1 L. • FaSSIF:” left out
(§5) Kinetic solubility was determined in biorelevant media. At each time point, the solution was analyzed by HPLC. The solid residue was analyzed by XRPD at selected time points. The pH of the solution was measured at 24 hours.

[5] = XRPD of solid residue from solubility samples (salt disproportionation); type: physicochemical; details: FaSSIF residue
Method: as §4, §5

[6] = from 2% to 95% relative humidity
[7] = from 5% to 95% relative humidity

For Cn1c2nc(Cc3cc[nH]n3)sc2c2cnn(Cc3cccc(N)n3)c(=O)c21 [Form D-2], the “moisture uptake (DVS)” value [1, 6] was “about 1.1%”.

For Cn1c2nc(Cc3cc[nH]n3)sc2c2cnn(Cc3cccc(N)n3)c(=O)c21 [Form D-1], the “moisture uptake (DVS)” value [1, 7] was “about 2.8%”.

With Cn1c2nc(Cc3cc[nH]n3)sc2c2cnn(Cc3cccc(N)n3)c(=O)c21 [Compound 1, 2-((1H-pyrazol-3-yl)methyl)-6-((6-aminopyridin-2-yl)methyl)-4-methyl-4,6-dihydro-5H-thiazolo[5′,4′:4,5]pyrrolo[2,3-d]pyridazin-5-one] the “Absolute % F” value ([2]; IV administration (historical), 1 mg/kg, reference) was 100% and the AUC(0-inf) ([2]; iv, 1 mg/kg, IV bolus (historical)) was 1.56 µg·h/mL.

For Cn1c2nc(Cc3cc[nH]n3)sc2c2cnn(Cc3cccc(N)n3)c(=O)c21 [Form B], the “dissolution in 0.1N HCl” value ([3]; 0.1N HCl) was “dissolved instantly”, the “pH (24 h)” value ([3]; 0.1 N HCl) was 1.44 and the solubility ([3]; 0.1 n hcl, dissolved instantly, estimated by adding 100 uL aliquots, read-out: solubility) was greater than 16.7 mg/mL. For the same compound, the solubility ([3]; pH 2 (USP), 2 h, 120 min) was 2.59 mg/mL (≈ 6600 µM), the solubility ([3]; pH 2 (USP), 24 h, 1440 min) was 2.40 mg/mL (≈ 6120 µM) and the “pH (24 h)” value ([3]; pH 2 (USP)) was 2.26. For the same compound, the solubility ([3]; pH 4.5 (USP), 24 h, 1440 min) was 0.27 mg/mL (≈ 688 µM), the “pH (24 h)” value ([3]; pH 4.5 (USP)) was 4.01 and the solubility ([3]; pH 6.8 (USP), 24 h, 1440 min) was 0.01 mg/mL (≈ 25.5 µM). The “pH (24 h)” value ([3]; pH 6.8 (USP)) was 5.09, the solubility at 2 h ([3]; ph 4.5 buffer (usp), pH 4.5, pH 4.5 (USP), 2 h) was 0.07 mg/mL (≈ 178 µM) and the solubility at 2 h ([3]; ph 6.8 buffer (usp), pH 6.8, pH 6.8 (USP), 2 h) was 0.03 mg/mL (≈ 76.4 µM). The solubility ([4]; FaSSIF pH 6.5, 10 min, 37 °C, 10 min) was 0.38 (suspect) mg/mL, the solubility ([4]; FaSSIF pH 6.5, 30 min, 37 °C, 30 min) was 0.36 (suspect) mg/mL and the solubility ([4]; FaSSIF pH 6.5, 1 h, 37 °C, 60 min) was 0.24 mg/mL (≈ 612 µM). For the same compound, the solubility ([4]; FaSSIF pH 6.5, 2 h, 37 °C, 120 min) was 0.57 mg/mL (≈ 1450 µM), the solubility ([4]; FaSSIF pH 6.5, 4 h, 37 °C, 240 min) was 1.40 (suspect) mg/mL and the solubility ([4]; FaSSIF pH 6.5, 24 h, 37 °C, 1440 min) was 0.70 mg/mL (≈ 1780 µM). The “pH (24 h)” value ([4]; FaSSIF pH 6.5, pH of solution at 24 h) was 3.39, the solubility ([4]; FeSSIF pH 5.0, 1 h, 37 °C, 60 min) was 0.08 mg/mL (≈ 204 µM) and the “pH (24 h)” value ([4]; FeSSIF pH 5.0, pH of solution at 24 h) was 4.79. For the same compound, the “pH (24 h)” value ([4]; SGF pH 1.2, pH of solution at 24 h) was 1.0, the solubility at 10 min ([4]; fessif, pH 5, FeSSIF pH 5.0, 10 min, 37 °C) was 0.34 mg/mL (≈ 866 µM) and the solubility at 0.5 h ([4]; fessif, pH 5, FeSSIF pH 5.0, 30 min, 37 °C) was 0.13 mg/mL (≈ 331 µM). The solubility at 2 h ([4]; fessif, pH 5, FeSSIF pH 5.0, 2 h, 37 °C) was 0.11 mg/mL (≈ 280 µM), the solubility at 4 h ([4]; fessif, pH 5, FeSSIF pH 5.0, 4 h, 37 °C) was 0.1 mg/mL (≈ 255 µM) and the solubility at 24 h ([4]; fessif, pH 5, FeSSIF pH 5.0, 24 h, 37 °C) was 0.06 mg/mL (≈ 153 µM). The solubility ([4]; sgf, pH 1.2, SGF pH 1.2, 37 °C, dissolved instantly, from total volume of media added, read-out: solubility) was greater than 10 mg/mL, the “dissolution in SGF” value ([4]; simulated gastric fluid (SGF)) was “dissolved instantly” and the “salt disproportionation by XRPD” value [5] was “some salt remained”. For the same compound, the “absolute bioavailability, comparison with other forms” value ([2]; oral gavage, 10 mg/kg) was “higher than the measured bioavailability of the other forms of Compound 1”, the AUCinf ([2]; oral gavage, 10 mg/kg, fasted overnight) was 10.846 µg·h/mL and the “Absolute % F” value ([2]; oral gavage, 10 mg/kg, vs historical IV AUCinf, 10 mg/kg) was 70%. The “moisture uptake (DVS)” value [1, 7] was “about 0.9%”.

For Cn1c2nc(Cc3cc[nH]n3)sc2c2cnn(Cc3cccc(N)n3)c(=O)c21.O=C(O)C(O)C(O)C(=O)O [Form I], the “moisture uptake (DVS)” value [1, 6] was “about 10.5%”.

For Cn1c2nc(Cc3cc[nH]n3)sc2c2cnn(Cc3cccc(N)n3)c(=O)c21 [Form E], the AUCinf ([2]; oral gavage, 10 mg/kg, fasted overnight, listed as Free Base Hydrate Form E (wet milled)) was 7.378 µg·h/mL, the “Absolute % F” value ([2]; oral gavage, 10 mg/kg, vs historical IV AUCinf, listed as Free Base Hydrate Form E (Unmilled), 10 mg/kg) was 45% and the “Absolute % F” value ([2]; oral gavage, 10 mg/kg, vs historical IV AUCinf, listed as Free Base Hydrate Form E (wet milled), 10 mg/kg) was 47%. For the same compound, the AUC(0-inf) ([2]; po, 10 mg/kg, oral gavage, fasted overnight) was 6.96 µg·h/mL and the “moisture uptake (DVS)” value [1, 7] was “about 1.3%”.

— patent US20260335314A1, “CRYSTALLINE SALTS OR AMORPHOUS FORMS OF 2-((1H-PYRAZOL-3-YL)METHYL)-6-((6-AMINOPYRIDIN-2-YL)METHYL)-4-METHYL-4,6-DIHYDRO -5H-THIAZOLO[5',4':4,5]PYRROLO[2,3-D]PYRIDAZIN-5-ONE” (Agios Pharmaceuticals, Inc., priority 2023, published 2026)
